Results taken from patent US5281628A, “9-amino-7-(substituted)-6-demethyl-6-deoxytetracyclines” (American Cyanamid Company, priority 1991, dated 1994).
Where a name gives a salt, the structure may show the parent alone.

Tests used:
E. coli UBMS 89-1 (tetM) = experiment: MIC, microtiter broth dilution; type: cell-based; conditions: Escherichia coli, 18 h
Method: (§1) The minimum inhibitory concentration (MIC), the lowest concentration of the antibiotic which inhibits growth of the test organism, is determined by the microtiter broth dilution method using 0.1 ml Muller-Hinton II broth (Baltimore Biological Laboratories) per well. A suitable oxygen scavenger (i.e., cysteine or dithiothreitol) is added to the assay medium for the testing of compounds according to Formula I because of the sensitivity of those compounds to oxidation. An inoculum level of 1-5×10^5 CFU/ml and a range of antibiotic concentrations (32 0.004 μg/ml) are used.

[1] = system: E. coli UBMS 89-2 (tetracycline-sensitive); experiment: MIC, microtiter broth dilution; type: cell-based; conditions: Escherichia coli, 18 h, no cysteine stated
Method: as §1

E. coli UBMS 90-4 (tetM) [2] = experiment: MIC, microtiter broth dilution; type: cell-based; conditions: Escherichia coli, 18 h
Method: as §1

[3] = system: E. faecalis AMV 120 (tetM); experiment: MIC, microtiter broth dilution; type: cell-based; conditions: Enterococcus faecalis, 18 h
Method: as §1

[4] = system: E. faecalis PAM 211 (tetN); experiment: MIC, microtiter broth dilution; type: cell-based; conditions: Enterococcus faecalis, 18 h
Method: as §1

M. morganii NEMC 87-119 = experiment: MIC, microtiter broth dilution; type: cell-based; conditions: Morganella morganii, NEMC87119, 18 h, no cysteine stated
Method: as §1

[5] = system: X. maltophilia FPOR 87-210; experiment: MIC, microtiter broth dilution; type: cell-based; conditions: Stenotrophomonas maltophilia, FPOR87210, 18 h, no cysteine stated
Method: as §1

E. coli UBMS 88-1 (tetB) = experiment: microbe, parasite or virus in culture; type: cell-based; conditions: Escherichia coli, 18 h
Method: as §1

[6] = system: S. aureus UBMS 88-7 (tetK); experiment: microbe, parasite or virus in culture; type: cell-based; conditions: Staphylococcus aureus, 18 h
Method: as §1

[7] = system: E. coli S30 Ribosomes, Wild Type (tetracycline sensitive); experiment: In vitro protein translation with E. coli S30 ribosomes, wild type; type: biochemical; conditions: for inhibition of protein synthesis on wild type ribosomes (in words): coupled transcription and translation system
Method: The E. coli in vitro translation system can be used to study not only the mechanism of protein translation itself, but also the effect that various compounds may have on protein synthesis. The system can be set up to function as a coupled transcription and translation system or as a translation only system depending on whether DNA or RNA is added to initiate protein synthesis. In this way, compounds affecting either RNA synthesis and/or protein synthesis can be studied. Protein synthesis is monitored by the incorporation of radiolabeled amino acids into trichloroacetic acid precipitable material. The system used is based upon literature methods [G. Zubay, Ann. Rev. Genet., 7: 267-287(1973) and J. Collins, Gene, 6: 28-42 (1979)].
The system used to study tetracycline protein synthesis inhibition is as follows:
An S30 extract (supernatant from a 30,000×G centrifugation of lysed cells) of either tetracycline sensitive or tetracycline resistant (tetM+) cells is combined with a mixture of low molecular weight compounds required for protein synthesis which include a mixture of 19 amino acids, methionine, ^35 S-methionine, plasmid template DNA and either dimethylsulfoxide (DMSO) or the tetracycline to be tested dissolved and diluted in DMSO. This mixture is incubated at 37° C. for 30 minutes. Following the incubation, 2.5 μl of the 10 μl reaction is removed and added to 0.5 ml of 1N sodium hydroxide. The solution is incubated an additional 15 minutes at 37° C., to destroy any m-RNA and t-RNA. The incorporation of ^35 S-methionine is determined by precipitating the high molecular weight material in the sodium hydroxide aliquot with trichloroacetic acid (TCA), collecting the precipitated material on Whatman G/FC filters, drying the filters and counting the radioactivity retained on the filter. Percent inhibition (P.I.) of protein synthesis is determined by the following equation: [formula]

E. coli 311 (sens) = experiment: Acute lethal infections in mice; type: in vivo; conditions: Escherichia coli, sc, 168 h, Subcutaneous, Single Dose, 7 day survival
Method: (§2) The therapeutic effects of tetracyclines are determined against acute lethal infections with various staphylococcal and E. coli strains. Female mice, strain CD-1 Charles River Laboratories, (20±2 grams) are challenged by an intraperitoneal injection of sufficient bacteria (suspended in broth or hog gastric mucin) to kill non-treated controls within 24-48 hours. Antibacterial agents, contained in 0.5 ml of 0.2% aqueous agar, are administered subcutaneously or orally 30 minutes after infection. When an oral dosing schedule is used, animals are deprived of food for 5 hours before and 2 hours after infection. Five mice are treated at each dose level. The 7 day survival ratios from three separate tests are pooled for calculation of median effective dose (ED50).

E. coli UBMS 90-4 (tetM) [8] = experiment: Acute lethal infections in mice; type: in vivo; conditions: Escherichia coli, sc, 168 h
Method: as §2

S. aureus Smith (sens) = experiment: Acute lethal infections in mice; type: in vivo; conditions: Staphylococcus aureus, 168 h, Single Dose, 7 day survival
Method: as §2

[9] = system: S. aureus UBMS 90-1 (tetM); experiment: Acute lethal infections in mice; type: in vivo; conditions: Staphylococcus aureus, sc, 168 h
Method: as §2

[10] = system: S. aureus UBMS 90-2 (tetM); experiment: Acute lethal infections in mice; type: in vivo; conditions: Staphylococcus aureus, 168 h
Method: as §2

S. aureus and E. coli = experiment: Acute lethal infections in mice, statements over several strains; type: in vivo; conditions: S. aureus and E. coli carrying tetM
Method: as §2

[11] = Wild Type S30 no DTT, 1.0 mg/ml
[12] = Wild Type S30 no DTT, 1:2 Dilution
[13] = Wild Type S30 no DTT, 1:4 Dilution
[14] = Wild Type S30 no DTT, 1:8 Dilution
[15] = Wild Type S30 no DTT, 1:16 Dilution
[16] = Wild Type S30 no DTT, 1:32 Dilution
[17] = Wild Type S30 no DTT, 1:64 Dilution
[18] = Wild Type S30 with DTT, 1.0 mg/ml
[19] = Wild Type S30 with DTT, 1:2 Dilution
[20] = Wild Type S30 with DTT, 1:4 Dilution
[21] = Wild Type S30 with DTT, 1:8 Dilution
[22] = Wild Type S30 with DTT, 1:16 Dilution
[23] = Wild Type S30 with DTT, 1:32 Dilution
[24] = Wild Type S30 with DTT, 1:64 Dilution

## CN(C)c1ccc(O)c2c1C[C@H]1C[C@H]3[C@H](N(C)C)C(O)=C(C(N)=O)C(=O)[C@@]3(O)C(O)=C1C2=O [B, 7-(Dimethylamino)-6-demethyl-6-deoxytetracycline hydrochloride]
E. coli UBMS 89-1 (tetM)
  MIC: 8 µg/mL
[1]
  MIC: 0.5 µg/mL
E. coli UBMS 90-4 (tetM) [2]
  MIC: > 32 µg/mL
[3]
  MIC: 16 µg/mL
[4]
  MIC: 16 µg/mL
M. morganii NEMC 87-119
  MIC: 2 µg/mL
[5]
  MIC: 0.06 µg/mL
E. coli UBMS 88-1 (tetB)
  MIC: 8 µg/mL
[6]
  MIC: 0.03 µg/mL
[7]; [11]
  % Inhibition: 87%
  Counts: 57696
[7]; [12]
  % Inhibition: 83%
  Counts: 76804
[7]; [13]
  % Inhibition: 88%
  Counts: 53400
[7]; [14]
  % Inhibition: 64%
  Counts: 162405
[7]; [15]
  % Inhibition: 53%
  Counts: 213077
[7]; [16]
  % Inhibition: 33%
  Counts: 306650
[7]; [17]
  % Inhibition: 0%
  Counts: 457601
[7]; [18]
  % Inhibition: 93%
  Counts: 58885
[7]; [19]
  % Inhibition: 91%
  Counts: 78961
[7]; [20]
  % Inhibition: 87%
  Counts: 111971
[7]; [21]
  % Inhibition: 83%
  Counts: 149792
[7]; [22]
  % Inhibition: 76%
  Counts: 207484
[7]; [23]
  % Inhibition: 67%
  Counts: 289304
[7]; [24]
  % Inhibition: 41%
  Counts: 518601
[7]
  inhibition of protein synthesis on wild type ribosomes (in words): effectively inhibit protein synthesis
E. coli 311 (sens)
  ED50: 3.1 mg/kg
E. coli UBMS 90-4 (tetM) [8]
  ED50: > 256 mg/kg
S. aureus Smith (sens); Oral
  ED50: 0.53 mg/kg
S. aureus Smith (sens); sc, Subcutaneous
  ED50: 0.32 mg/kg
[9]
  ED50: 1.7 mg/kg
[10]; po
  ED50: 1.8 mg/kg
[10]; sc
  ED50: 1.8 mg/kg

## CN(C)c1cc(N)c(O)c2c1C[C@H]1C[C@H]3[C@H](N(C)C)C(O)=C(C(N)=O)C(=O)[C@@]3(O)C(O)=C1C2=O [A, 9-Amino-7-(dimethylamino)-6-demethyl-6-deoxytetracycline hydrochloride]
[7]; [11]
  % Inhibition: 88%
  Counts: 52595
[7]; [12]
  % Inhibition: 82%
  Counts: 80494
[7]; [13]
  % Inhibition: 79%
  Counts: 95015
[7]; [14]
  % Inhibition: 72%
  Counts: 130209
[7]; [15]
  % Inhibition: 55%
  Counts: 205392
[7]; [16]
  % Inhibition: 35%
  Counts: 297786
[7]; [17]
  % Inhibition: 46%
  Counts: 245494
[7]; [18]
  % Inhibition: 96%
  Counts: 38121
[7]; [19]
  % Inhibition: 93%
  Counts: 60891
[7]; [20]
  % Inhibition: 89%
  Counts: 92203
[7]; [21]
  % Inhibition: 84%
  Counts: 143215
[7]; [22]
  % Inhibition: 75%
  Counts: 214831
[7]; [23]
  % Inhibition: 73%
  Counts: 238321
[7]; [24]
  % Inhibition: 56%
  Counts: 380103
[7]
  inhibition of protein synthesis on wild type ribosomes (in words): effectively inhibit protein synthesis
E. coli 311 (sens)
  ED50: 2.8 mg/kg
E. coli UBMS 90-4 (tetM) [8]
  ED50: 24 mg/kg
S. aureus Smith (sens); Oral
  ED50: 0.81 mg/kg
S. aureus Smith (sens); sc, Subcutaneous
  ED50: 0.34 mg/kg
[9]
  ED50: 0.3 mg/kg
[10]; po
  ED50: 1.6 mg/kg
[10]; sc
  ED50: 0.53 mg/kg
S. aureus and E. coli
  ED50 compared with B, strains which carry the tetM resistance determinant: Lowered ED50 's
